Values after ≈ are worked out from the molar mass of the structure shown.
What was measured:
[1] = target: Human immunodeficiency virus type 1 protease (Human immunodeficiency virus 1, UniProt Q72874); assay: Inhibitory activity HIV-1 protease enzyme
CCRF-CEM = assay: Inhibitory activity against CEM cells; format: functional, cell-based; details: Homo sapiens
[2] = Oral availability was tested for plasma levels at a dose of 40 mg/kg, after 6 hr of in fed fisher rats.; format: ADME, organism-based; design: dose 40 mg/kg; details: Fischer, rat, read-out: Oral availability
[3] = target: Human immunodeficiency virus type 1 protease (Human immunodeficiency virus 1) (UniProt Q72874); assay: Concentration required for the inhibition against HIV-protease enzyme at a dose of 40 mg/kg in fed fisher rats; format: organism-based; design: dose 40 mg/kg

For `CC(C)(C)NC(=O)c1ccccc1C[C@@H](O)[C@H](CSc1ccc2ccccc2c1)NC(=O)c1cccc2c1CCN2`, which Ki [1] is on record?
The Ki was 166 nM.

What about the IC50 (CCRF-CEM) of the same compound?
The IC50 was over 50 µg/mL.

Which Ki [1] does the source give for `CC(C)(C)NC(=O)c1ccccc1C[C@@H](O)[C@H](CSc1ccc2ccccc2c1)NC(=O)c1cccc2c1CCNC2` here?
The Ki was 180 nM.

And the IC50 (CCRF-CEM)?
The IC50 was over 50 µg/mL.

With `CC(C)(C)NC(=O)c1ccccc1C[C@@H](O)[C@H](CSc1ccc2ccccc2c1)NC(=O)c1ccnc2ccccc12` as the compound, how does the Ki [1] read?
The Ki was 265 nM.

And the IC50 (CCRF-CEM)?
The IC50 was 5.6 µg/mL (≈ 9.69 µM).

Which Ki [1] does the source give for `Cc1ccc(N)cc1C(=O)N[C@@H](CSc1ccc2ccccc2c1)[C@H](O)Cc1ccccc1C(=O)NC(C)(C)C` here?
The Ki was 17 nM.

And the IC50 (CCRF-CEM)?
Its IC50 is 1.3 µg/mL (≈ 2.34 µM).

With `Cc1c(C(=O)N[C@@H](CSc2ccc3ccccc3c2)[C@H](O)Cc2ccccc2C(=O)NC(C)(C)C)cccc1[N+](=O)[O-]` as the compound, how does the Ki [1] read?
Its Ki is 540 nM.

And the IC50 (CCRF-CEM)?
Its IC50 is over 50 µg/mL.

For `Cc1c(O)cccc1C(=O)N[C@@H](Cc1ccccc1)[C@H](O)CN1C[C@H]2CCCC[C@H]2C[C@H]1C(=O)NC(C)(C)C`, which bioavailability [2] is on record?
The bioavailability was 44%.

And the IC90 [3]?
The IC90 was 0.03 µg/mL (≈ 0.056 µM).

What about the Ki [1] of the same compound?
Its Ki is 21 nM.

What about the IC50 (CCRF-CEM) of the same compound?
Its IC50 is 0.01 µg/mL (≈ 0.0187 µM).

For `CC(C)(C)NC(=O)c1ccccc1C[C@@H](O)[C@H](CSc1ccc2ccccc2c1)NC(=O)c1cccc2c1CCCN2`, which Ki [1] is on record?
Its Ki is 24 nM.

And the IC50 (CCRF-CEM)?
Its IC50 is 1.9 µg/mL (≈ 3.27 µM).

What does the source list for `Cc1c(O)cccc1C(=O)N[C@@H](CSc1ccc2ccccc2c1)[C@H](O)Cc1ccccc1C(=O)NC(C)(C)C`?
Ki [1]: 3 nM; IC50 (CCRF-CEM): 0.97 µg/mL (≈ 1.74 µM)

For `CC(C)(C)NC(=O)c1ccccc1C[C@@H](O)[C@H](CSc1ccc2ccccc2c1)NC(=O)c1cccc(N)c1Cl`, which Ki [1] is on record?
Its Ki is 16 nM.

And the IC50 (CCRF-CEM)?
Its IC50 is 1.5 µg/mL (≈ 2.6 µM).

For `CC(C)(C)NC(=O)c1ccccc1C[C@@H](O)[C@H](CSc1ccc2ccccc2c1)NC(=O)c1cccc2ncccc12`, which Ki [1] is on record?
Its Ki is 113 nM.

What about the IC50 (CCRF-CEM) of the same compound?
The IC50 was 5.7 µg/mL (≈ 9.87 µM).

For `Cc1c(N)cccc1C(=O)N[C@@H](CSc1ccc2ccccc2c1)[C@H](O)Cc1ccccc1C(=O)NC(C)(C)C`, which Ki [1] is on record?
The Ki was 49 nM.

What about the IC50 (CCRF-CEM) of the same compound?
Its IC50 is 5 µg/mL (≈ 9 µM).

With `CC(C)(C)NC(=O)c1ccccc1C[C@@H](O)[C@H](CSc1ccc2ccccc2c1)NC(=O)c1cccc2cnccc12` as the compound, how does the Ki [1] read?
The Ki was 800 nM.

And the IC50 (CCRF-CEM)?
The IC50 was 16 µg/mL (≈ 27.7 µM).

What does the source list for `CC(C)(C)NC(=O)c1ccccc1C[C@@H](O)[C@H](CSc1ccc2ccccc2c1)NC(=O)c1cccc(N)c1Br`?
Ki [1]: 33 nM; IC50 (CCRF-CEM): 1.6 µg/mL (≈ 2.58 µM)

Which Ki [1] does the source give for `CC(C)(C)NC(=O)c1ccccc1C[C@@H](O)[C@H](CSc1ccc2ccccc2c1)NC(=O)c1cccc(O)c1Cl` here?
The Ki was 15 nM.

For `Cc1ccc(O)cc1C(=O)N[C@@H](CSc1ccc2ccccc2c1)[C@H](O)Cc1ccccc1C(=O)NC(C)(C)C`, which Ki [1] is on record?
Its Ki is 500 nM.

With `CC(C)(C)NC(=O)c1ccccc1C[C@@H](O)[C@H](CSc1ccc2ccccc2c1)NC(=O)c1cccc2[nH]ccc12` as the compound, how does the Ki [1] read?
The Ki was 164 nM.

And the IC50 (CCRF-CEM)?
Its IC50 is 6.6 µg/mL (≈ 11.7 µM).

Which results are given for `Cc1c(N)cc(N)cc1C(=O)N[C@@H](CSc1ccc2ccccc2c1)[C@H](O)Cc1ccccc1C(=O)NC(C)(C)C`?
Ki [1]: 5 nM; IC50 (CCRF-CEM): 0.46 µg/mL (≈ 0.806 µM)

From ChEMBL document CHEMBL1128867, “Structure-based drug design of nonpeptidic P2 substituents for HIV-1 protease inhibitors” (Bioorg Med Chem Lett, 1995)
